23 compounds from patent US12612407B2, “Imidazo[2,1-f][1,2,4]triazin-4-amine derivatives as TLR7 agonist” (BEIGENE, LTD., priority 2020, dated 2026) can be followed below.

pEC50: −log10 of the molar value.

The test deals with T1, human TLR7 (Homo sapiens, UniProt Q9NYK1).
T1 construct: host or cells: HEK293 (HEK-Blue hTLR7)
T1 sequence (Q9NYK1 27-1049): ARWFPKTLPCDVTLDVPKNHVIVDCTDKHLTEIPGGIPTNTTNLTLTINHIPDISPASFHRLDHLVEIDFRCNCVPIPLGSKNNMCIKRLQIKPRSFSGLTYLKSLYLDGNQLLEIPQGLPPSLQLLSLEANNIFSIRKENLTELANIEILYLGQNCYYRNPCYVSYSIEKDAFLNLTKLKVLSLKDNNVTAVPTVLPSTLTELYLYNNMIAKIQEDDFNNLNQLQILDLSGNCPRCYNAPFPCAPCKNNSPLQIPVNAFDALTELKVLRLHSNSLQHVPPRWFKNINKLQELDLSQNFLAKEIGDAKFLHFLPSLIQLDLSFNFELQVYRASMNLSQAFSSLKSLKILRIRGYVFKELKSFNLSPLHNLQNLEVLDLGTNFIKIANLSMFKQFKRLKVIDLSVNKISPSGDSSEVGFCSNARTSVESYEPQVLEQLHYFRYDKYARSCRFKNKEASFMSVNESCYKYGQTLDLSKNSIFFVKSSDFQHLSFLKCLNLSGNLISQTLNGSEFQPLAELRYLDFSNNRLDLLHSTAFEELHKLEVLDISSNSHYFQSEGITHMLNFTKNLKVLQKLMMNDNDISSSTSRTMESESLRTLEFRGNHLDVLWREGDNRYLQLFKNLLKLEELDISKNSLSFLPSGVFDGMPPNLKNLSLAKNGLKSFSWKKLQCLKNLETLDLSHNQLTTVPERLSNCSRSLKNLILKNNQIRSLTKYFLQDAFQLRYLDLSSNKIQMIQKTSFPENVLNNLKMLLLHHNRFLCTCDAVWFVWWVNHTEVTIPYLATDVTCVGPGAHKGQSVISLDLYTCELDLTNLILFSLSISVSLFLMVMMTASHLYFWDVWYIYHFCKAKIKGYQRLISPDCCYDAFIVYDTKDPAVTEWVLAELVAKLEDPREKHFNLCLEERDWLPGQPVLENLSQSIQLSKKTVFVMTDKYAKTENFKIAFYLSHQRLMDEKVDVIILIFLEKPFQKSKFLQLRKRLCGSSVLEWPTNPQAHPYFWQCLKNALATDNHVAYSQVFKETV
Nature of the test: HEK293-Blue hTLR7 Reporter Assay (QUANTI-BLUE, SEAP readout). As to conditions: HEK-Blue-hTLR7 cells, 24 hrs treatment, Table 1, B1-B232. In kind it is cell-based. The essentials:
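Compound titrations were applied for 24 h at 37° C to reporter HEK293 cells (4×10^4 per well) in which human TLR7 activation drives secreted alkaline phosphatase. Supernatants reacted with Quanti-blue 10-30 min, absorbance read at 620-655 nm, and EC50 derived by sigmoidal curve fitting.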
(In general: Reporter assays use an easily measured gene product as a stand-in for the process of interest.)
On to `CCCC(Oc1nc(N)c2ncc(Cc3cnc(N4CCNCC4)c(C)c3)n2n1)C1CC1` (centres unmarked) [Compound B202, 2-(1-cyclopropylbutoxy)-7-((5-methyl-6-(piperazin-1-yl)pyridin-3-yl)methyl)imidazo[2,1-f][1,2,4]triazin-4-amine], for which the negative-log EC50 (pEC50) (in general, the negative decadic logarithm of the EC50, by convention in mol/L) is 7.82.

In turn, `CCCC(C)Nc1nc(N)c2ncc(Cc3cnc(N4CCC(CNC)CC4)c(C)c3)n2n1` (centres unmarked) [Compound B204, 7-((5-methyl-6-(4-((methylamino)methyl)piperidin-1-yl)pyridin-3-yl)methyl)-N2-(pentan-2-yl)imidazo[2,1-f][1,2,4]triazine-2,4-diamine] showed a negative-log EC50 (pEC50) of 8.14.

`CCCC(C)Oc1nc(N)c2ncc(Cc3cnc(N4CCC(CNC)CC4)c(C)c3)n2n1` (centres unmarked) [Compound B205, 7-((5-methyl-6-(4-((methylamino)methyl)piperidin-1-yl)pyridin-3-yl)methyl)-2-(pentan-2-yloxy)imidazo[2,1-f][1,2,4]triazin-4-amine]: the pEC50 is 8.19.

Turning to `CNCC(C)Oc1nc(N)c2ncc(Cc3cnc(N4CCNCC4)c(C)c3)n2n1` (centres unmarked) [Compound B206, 7-((5-methyl-6-(piperazin-1-yl)pyridin-3-yl)methyl)-2-((1-(methylamino)propan-2-yl)oxy)imidazo[2,1-f][1,2,4]triazin-4-amine], the negative logarithm of the EC50 (pEC50) was 5.25.

In turn, `CCC(CC)Nc1nc(N)c2ncc(Cc3cnc(N4CCC(CN(C)C)CC4)c(C)c3)n2n1` [Compound B208, 7-((6-(4-((dimethylamino)methyl)piperidin-1-yl)-5-methylpyridin-3-yl)methyl)-N2-(pentan-3-yl)imidazo[2,1-f][1,2,4]triazine-2,4-diamine] showed a pEC50 of 8.13.

On to `CCC(CC)Nc1nc(N)c2ncc(Cc3cnc(N4CCC(N(C)C)CC4)c(C)c3)n2n1` [Compound B209, 7-((6-(4-(dimethylamino)piperidin-1-yl)-5-methylpyridin-3-yl)methyl)-N2-(pentan-3-yl)imidazo[2,1-f][1,2,4]triazine-2,4-diamine], for which the pEC50 is 8.04. This pEC50 and that of the compound before are within 0.2 log units of each other.

In the case of `CCC(CC)Nc1nc(N)c2ncc(Cc3cnc(N4CCNCC4)c(C)c3)n2n1` [Compound B210, 7-((5-methyl-6-(piperazin-1-yl)pyridin-3-yl)methyl)-N2-(pentan-3-yl)imidazo[2,1-f][1,2,4]triazine-2,4-diamine], the negative logarithm of the EC50 (pEC50) was 7.92.

`CCC(CC)Nc1nc(N)c2ncc(Cc3cnc(N4CCN(C(=O)CN(C)C)CC4)c(C)c3)n2n1` [Compound B211, 1-(4-(5-((4-amino-2-(pentan-3-ylamino)imidazo[2,1-f][1,2,4]triazin-7-yl)methyl)-3-methylpyridin-2-yl)piperazin-1-yl)-2-(dimethylamino)ethan-1-one] gave a pEC50 of 8.11.

`CCC[C@H](C)Oc1nc(N)c2ncc(Cc3cnc(N4CCN(C(=O)CNCC(C)C)CC4)c(C)c3)n2n1` [Compound B212, (S)-1-(4-(5-((4-amino-2-(pentan-2-yloxy)imidazo[2,1-f][1,2,4]triazin-7-yl)methyl)-3-methylpyridin-2-yl)piperazin-1-yl)-2-(isobutylamino)ethan-1-one] showed a pEC50 of 8.21.

Turning to `CCC[C@H](C)Oc1nc(N)c2ncc(Cc3cnc(N4CCC(NCC(C)C)CC4)c(C)c3)n2n1` [Compound B215, (S)-7-((6-(4-(isobutylamino)piperidin-1-yl)-5-methylpyridin-3-yl)methyl)-2-(pentan-2-yloxy)imidazo[2,1-f][1,2,4]triazin-4-amine], the pEC50 is 8.38. The pEC50 values of the last two compounds are within 0.2 log units of each other.

Take `CC[C@@H](CCO)Oc1nc(N)c2ncc(Cc3cnc(N4CCNCC4)c(C)c3)n2n1` [Compound B216, (S)-3-((4-amino-7-((5-methyl-6-(piperazin-1-yl)pyridin-3-yl)methyl)imidazo[2,1-f][1,2,4]triazin-2-yl)oxy)pentan-1-ol]: the negative logarithm of the EC50 (pEC50) was 5.97.

`CC[C@H](O)CCOc1nc(N)c2ncc(Cc3cnc(N4CCNCC4)c(C)c3)n2n1` [Compound B217, (S)-1-((4-amino-7-((5-methyl-6-(piperazin-1-yl)pyridin-3-yl)methyl)imidazo[2,1-f][1,2,4]triazin-2-yl)oxy)pentan-3-ol]: the negative logarithm of the EC50 (pEC50) is 5.61.

Take `CCCC(CCO)Oc1nc(N)c2ncc(Cc3cnc(N4CCN(C(=O)CNC)CC4)c(C)c3)n2n1` (centres unmarked) [Compound B218, 1-(4-(5-((4-amino-2-((1-hydroxyhexan-3-yl)oxy)imidazo[2,1-f][1,2,4]triazin-7-yl)methyl)-3-methylpyridin-2-yl)piperazin-1-yl)-2-(methylamino)ethan-1-one]: the pEC50 was 7.34.

Turning to `CCCC(CCC)Nc1nc(N)c2ncc(Cc3cnc(N4CCC(CNC)CC4)c(C)c3)n2n1` [Compound B220, N2-(heptan-4-yl)-7-((5-methyl-6-(4-((methylamino)methyl)piperidin-1-yl)pyridin-3-yl)methyl)imidazo[2,1-f][1,2,4]triazine-2,4-diamine], the pEC50 was 8.44. This pEC50 lies 1.10 log units higher than the previous one.

In the case of `CCCC(CC)Nc1nc(N)c2ncc(Cc3cnc(N4CCNCC4)c(C)c3)n2n1` (centres unmarked) [Compound B223, N2-(hexan-3-yl)-7-((5-methyl-6-(piperazin-1-yl)pyridin-3-yl)methyl)imidazo[2,1-f][1,2,4]triazine-2,4-diamine], the negative logarithm of the EC50 (pEC50) was 8.22. This pEC50 is 0.22 log units lower than that of the compound before.

`CCC[C@@H](CCO)Nc1nc(N)c2ncc(Cc3cnc(N4CCNCC4)c(C)c3)n2n1` [Compound B226, (S)-3-((4-amino-7-((5-methyl-6-(piperazin-1-yl)pyridin-3-yl)methyl)imidazo[2,1-f][1,2,4]triazin-2-yl)amino)hexan-1-ol] gave a pEC50 of 7.34.

Take `CCCC(Nc1nc(N)c2ncc(Cc3cnc(N4CCNCC4)c(C)c3)n2n1)C(F)(F)F` (centres unmarked) [Compound B227, 7-((5-methyl-6-(piperazin-1-yl)pyridin-3-yl)methyl)-N2-(1,1,1-trifluoropentan-2-yl)imidazo[2,1-f][1,2,4]triazine-2,4-diamine]: the negative logarithm of the EC50 (pEC50) was 7.60.

Consider `CCC[C@@H](CCO)Nc1nc(N)c2ncc(Cc3cnc(N4CCC(CNC)CC4)c(C)c3)n2n1` [Compound B228, (S)-3-((4-amino-7-((5-methyl-6-(4-((methylamino)methyl)piperidin-1-yl)pyridin-3-yl)methyl)imidazo[2,1-f][1,2,4]triazin-2-yl)amino)hexan-1-ol], for which the pEC50 was 7.43.

In the case of `CCCC(CCO)Oc1nc(N)c2ncc(Cc3cnc(N4CCC(CNC)CC4)c(C)c3)n2n1` (centres unmarked) [Compound B229, 3-((4-amino-7-((5-methyl-6-(4-((methylamino)methyl)piperidin-1-yl)pyridin-3-yl)methyl)imidazo[2,1-f][1,2,4]triazin-2-yl)oxy)hexan-1-ol], the negative logarithm of the EC50 (pEC50) is 7.85.

On to `CCC[C@H](CC)Oc1nc(N)c2ncc(Cc3cnc(N4CCN(C(=O)CNC)CC4)c(C)c3)n2n1` [Compound B230, (S)-1-(4-(5-((4-amino-2-(hexan-3-yloxy)imidazo[2,1-f][1,2,4]triazin-7-yl)methyl)-3-methylpyridin-2-yl)piperazin-1-yl)-2-(methylamino)ethan-1-one], for which the pEC50 was 8.32.

In turn, `CCC[C@H](C)Nc1nc(N)c2ncc(Cc3cnc(N4CCN(C(=O)CNC)CC4)c(C)c3)n2n1` [Compound B231, (S)-1-(4-(5-((4-amino-2-(pentan-2-ylamino)imidazo[2,1-f][1,2,4]triazin-7-yl)methyl)-3-methylpyridin-2-yl)piperazin-1-yl)-2-(methylamino)ethan-1-one] gave a negative-log EC50 (pEC50) of 8.39.

As for `CCCC(CO)Nc1nc(N)c2ncc(Cc3cnc(N4CCC(CNC)CC4)c(C)c3)n2n1` (centres unmarked) [Compound B232, 2-((4-amino-7-((5-methyl-6-(4-((methylamino)methyl)piperidin-1-yl)pyridin-3-yl)methyl)imidazo[2,1-f][1,2,4]triazin-2-yl)amino)pentan-1-ol], the pEC50 was 7.51.

As for “N2-methyl-7-((5-methyl-6-(piperazin-1-yl)pyridin-3-yl)methyl)-N2-propylimidazo[2,1-f][1,2,4]triazine-2,4-diamine [Compound B84]”, the pEC50 is 6.00.
